From US20230102554A1 (GB002, INC., priority 2019, published 2023)

Tests used:
[1] = molecular target: T1, Human PDGFRβ, cytoplasmic domain (GST-PDGFRβ) (Homo sapiens, UniProt P09619); assay: Human PDGFRβ biochemical inhibition assay (off-chip Mobility Shift Assay)
T1 construct: made in house
How it was run: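 GST-tagged cytoplasmic domain (aa 557-1106) from baculovirus was incubated 1 h at room temperature with compound, CSKtide, ATP at Km and Mg²⁺ in HEPES buffer, pH 7.5. Phosphorylated and unphosphorylated peptide were separated by off-chip mobility shift, and the product ratio P/(P+S) gave percent inhibition.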

[2] = molecular target: T2, Human PDGFRα, cytoplasmic domain (GST-PDGFRα) (Homo sapiens, UniProt P16234); assay: Human PDGFRα biochemical inhibition assay (off-chip Mobility Shift Assay)
T2 construct: made in house
T2 sequence (P16234 550-1089 T674I): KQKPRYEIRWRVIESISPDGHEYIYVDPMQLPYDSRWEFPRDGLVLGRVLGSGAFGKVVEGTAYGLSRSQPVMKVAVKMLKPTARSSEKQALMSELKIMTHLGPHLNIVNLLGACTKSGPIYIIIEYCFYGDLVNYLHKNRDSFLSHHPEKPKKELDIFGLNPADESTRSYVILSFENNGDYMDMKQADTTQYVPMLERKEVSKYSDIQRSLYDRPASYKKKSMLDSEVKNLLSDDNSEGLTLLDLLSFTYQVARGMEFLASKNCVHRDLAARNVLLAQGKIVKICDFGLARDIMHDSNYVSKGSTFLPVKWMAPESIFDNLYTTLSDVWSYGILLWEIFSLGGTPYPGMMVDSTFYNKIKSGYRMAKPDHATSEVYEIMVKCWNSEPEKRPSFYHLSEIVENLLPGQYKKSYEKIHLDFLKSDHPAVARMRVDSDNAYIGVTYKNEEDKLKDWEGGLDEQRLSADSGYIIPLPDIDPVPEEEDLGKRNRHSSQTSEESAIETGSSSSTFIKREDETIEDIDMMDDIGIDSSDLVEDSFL

T1 sequence (P09619 with tags, fused parts or gaps): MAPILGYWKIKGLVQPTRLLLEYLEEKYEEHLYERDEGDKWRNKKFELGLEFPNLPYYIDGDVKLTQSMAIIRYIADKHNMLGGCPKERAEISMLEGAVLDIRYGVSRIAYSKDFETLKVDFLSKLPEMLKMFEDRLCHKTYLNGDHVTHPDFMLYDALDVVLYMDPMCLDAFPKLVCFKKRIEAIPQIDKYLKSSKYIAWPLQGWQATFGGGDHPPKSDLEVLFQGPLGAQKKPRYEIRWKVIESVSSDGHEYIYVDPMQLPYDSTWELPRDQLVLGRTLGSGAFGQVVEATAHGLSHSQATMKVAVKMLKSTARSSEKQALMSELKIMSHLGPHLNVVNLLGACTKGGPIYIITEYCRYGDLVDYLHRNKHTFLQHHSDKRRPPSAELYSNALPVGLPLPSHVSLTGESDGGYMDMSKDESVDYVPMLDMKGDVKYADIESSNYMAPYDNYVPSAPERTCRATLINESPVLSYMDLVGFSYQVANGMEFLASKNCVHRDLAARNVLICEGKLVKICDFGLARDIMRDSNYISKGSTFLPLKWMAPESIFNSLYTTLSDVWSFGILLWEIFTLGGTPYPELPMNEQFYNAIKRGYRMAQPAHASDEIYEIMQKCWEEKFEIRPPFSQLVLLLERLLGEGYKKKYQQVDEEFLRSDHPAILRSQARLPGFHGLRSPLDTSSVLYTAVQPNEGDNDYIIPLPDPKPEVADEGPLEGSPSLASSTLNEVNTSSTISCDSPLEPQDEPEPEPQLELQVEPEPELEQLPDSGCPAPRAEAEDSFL

| Compound | IC50 [1] [nM] | IC50 [2] [nM] |
| --- | --- | --- |
| Cc1cncc(C(=O)Nc2cccc([C@H](C)Nc3cnc4ccn(CCO)c4n3)c2)c1 [Compound 83, (S)-N-(3-(1-((5-(2-hydroxyethyl)-5H-pyrrolo[2,3-6]pyrazin-3-yl)amino)ethyl)phenyl)-5-methylnicotinamide] | ≥ 1000 | < 300 |
| CCn1cc2ncc(N[C@@H](C)c3cccc(NC(=O)c4cnc(C(F)F)c(C)c4)c3)nc2n1 [Compound 353] | < 300 | < 300 |
| Cc1cncc(C(=O)Nc2cccc([C@H](C)Nc3cnc4ccc(Br)cc4n3)c2)c1 [Compound 39, (S)-N-(3-(1-((7-bromoquinoxalin-2-yl)amino)ethyl)phenyl)-5-methylnicotinamide] | < 300 | < 300 |
| Cc1c[nH]c2ncc(N[C@@H](C)c3cccc(NC(=O)c4ccc(C5CC5)nc4)c3)nc12 [Compound 558, (S)-6-cyclopropyl-N-(3-(1-((7-methyl-5H-pyrrolo[2,3-b]pyrazin-2-yl)amino)ethyl)phenyl)nicotinamide] | < 300 | < 300 |
| CCCOC(=O)c1ccc(C(=O)Nc2cccc([C@H](C)Nc3cnc4cnn(C)c4n3)c2)cc1C [Compound 254, propyl (S)-2-methyl-4-((3-(1-((1-methyl-1H-pyrazolo[3,4-b]pyrazin-6-yl)amino)ethyl)phenyl)carbamoyl)benzoate] | < 300 | < 300 |
| COCCn1ccc2ncc(N[C@@H](C)c3cccc(NC(=O)c4cncc(C)c4)c3)nc21 [Compound 84, (S)-N-(3-(1-((5-(2-methoxyethyl)-5H-pyrrolo [2,3-b]pyrazin-3-yl)amino)ethyl)phenyl)-5-methylnicotinamide] | 300 to 1000 | < 300 |
| CSc1cc(C(=O)Nc2cccc([C@H](C)Nc3cnc4cnn(C)c4n3)c2)ccc1CN1CCN(C)CC1 [Compound 238, (S)-N-(3-(1-((1-methyl-1H-pyrazolo[3,4-b]pyrazin-6-yl)amino)ethyl)phenyl)-4-((4-methylpiperazin-1-yl)methyl)-3-(methylthio)benzamide] | < 300 | < 300 |
| C[C@H](Nc1cnc2cnn(C)c2n1)c1cccc(NC(=O)c2cc(C3CC3)on2)c1 [Compound 144, (S)-5-cyclopropyl-N-(3-(1-((1-methyl-1H-pyrazolo[3,4-b]pyrazin-6-yl)amino)ethyl)phenyl)isoxazole-3-carboxamide] | < 300 | < 300 |
| CCn1cc2ncc(N[C@@H](C)c3cccc(NC(=O)c4ccc(CN5CCCC(F)(F)C5)c(C)c4)c3)nc2n1 [Compound 474, (S)-4-((3,3-difluoropiperidin-1-yl)methyl)-N-(3-(1-((2-ethyl-2H-pyrazolo[3,4-b]pyrazin-6-yl)amino)ethyl)phenyl)-3-methylbenzamide] | < 300 | < 300 |
| CCn1cc2ncc(N[C@@H](C)c3cccc(NC(=O)c4cnc(F)c(C)c4)c3)nc2n1 [Compound 329, (S)-N-(3-(1-((2-ethyl-2H-pyrazolo[3,4-b]pyrazin-6-yl)amino)ethyl)phenyl)-6-fluoro-5-methylnicotinamide] | < 300 | < 300 |
| CCn1cc2ncc(N[C@@H](C)c3cccc(NC(=O)c4ccc(Cl)c(F)c4)c3)nc2n1 [Compound 347, (S)-4-chloro-N-(3-(1-((2-ethyl-2H-pyrazolo[3,4-b]pyrazin-6-yl)amino)ethyl)phenyl)-3-fluorobenzamide] | < 300 | < 300 |
| C[C@H](Nc1cnc2cnn(C)c2n1)c1cccc(NC(=O)c2cc(C(F)(F)F)n(C)n2)c1 [Compound 164, (S)-1-methyl-N-(3-(1-((1-methyl-1H-pyrazolo[3,4-b]pyrazin-6-yl)amino)ethyl)phenyl)-5-(trifluoromethyl)-1H-pyrazole-3-carboxamide] | < 300 | < 300 |
| CCn1cc2ncc(N[C@@H](C)c3cccc(NC(=O)c4cnn(CC5CC5)c4)c3)nc2n1 [Compound 300, (S)-1-(cyclopropylmethyl)-N-(3-(1-((2-ethyl-2H-pyrazolo[3,4-b]pyrazin-6-yl)amino)ethyl)phenyl)-1H-pyrazole-4-carboxamide] | < 300 | < 300 |
| CCn1cc2ncc(N[C@@H](C)c3cccc(NC(=O)c4ccc(C#N)c(C)c4)c3)nc2n1 [Compound 331, (S)-4-cyano-N-(3-(1-((2-ethyl-2H-pyrazolo[3,4-b]pyrazin-6-yl)amino)ethyl)phenyl)-3-methylbenzamide] | < 300 | < 300 |
| C[C@H](Nc1cnc2cnn(C)c2n1)c1cccc(NC(=O)c2cnc(C(F)F)s2)c1 [Compound 141, (S)-2-(difluoromethyl)-N-(3-(1-((1-methyl-1H-pyrazolo[3,4-b]pyrazin-6-yl)amino)ethyl)phenyl)thiazole-5-carboxamide] | < 300 | < 300 |
| Cc1c[nH]c2ncc(N[C@@H](C)c3cccc(NC(=O)c4cncc(C(F)F)c4)c3)nc12 [Compound 556, (S)-5-(difluoromethyl)-N-(3-(1-((7-methyl-5H-pyrrolo[2,3-6]pyrazin-2-yl)amino)ethyl)phenyl)nicotinamide] | < 300 | < 300 |

| Compound | IC50 [1] [nM] | IC50 [2] [nM] |
| --- | --- | --- |
| CC[C@H](Nc1cnc2cn(CC)nc2n1)c1cccc(NC(=O)c2cncc(C)c2)c1 [Compound 408, (S)-N-(3-(1-((2-ethyl-2H-pyrazolo[3,4-b]pyrazin-6-yl)amino)propyl)phenyl)-5-methylnicotinamide] | ≥ 1000 | 300 to 1000 |
| CCn1cc2ncc(N[C@@H](C)c3cc(NC(=O)c4ccc(CN5CCN(C)CC5)c(C)c4)ccc3C)nc2n1 [Compound 524, (S)-N-(3-(1-((2-ethyl-2H-pyrazolo[3,4-b]pyrazin-6-yl)amino)ethyl)-4-methylphenyl)-3-methyl-4-((4-methylpiperazin-1-yl)methyl)benzamide] | < 300 | < 300 |
| Cc1cc(C(=O)Nc2cccc([C@H](C)Nc3cnc4cnn(C)c4n3)c2)cnc1O [Compound 253, (S)-6-hydroxy-5-methyl-N-(3-(1-((1-methyl-1H-pyrazolo[3,4-b]pyrazin-6-yl)amino)ethyl)phenyl)nicotinamide] | ≥ 1000 | < 300 |
| Cc1cncc(C(=O)Nc2cccc([C@H](C)Nc3cnc4[nH]nc(C)c4n3)c2)c1 [Compound 16, (S)-5-methyl-N-(3-(1-((3-methyl-1H-pyrazolo[3,4-b]pyrazin-5-yl)amino)ethyl)phenyl)nicotinamide] | < 300 | < 300 |
| Cc1c[nH]c2ncc(N[C@@H](C)c3cccc(NC(=O)c4cnn(C5CC5)c4)c3)nc12 [Compound 573, (s)-1-cyclopropyl-N-(3-(1-((7-methyl-5H-pyrrolo[2,3-b]pyrazin-2-yl)amino)ethyl)phenyl)-1H-pyrazole-4-carboxamide] | < 300 | < 300 |
| Cc1cc(C(=O)Nc2cccc([C@H](C)Nc3cnc4cnn(C)c4n3)c2)cnc1NC(C)C [Compound 198, (S)-6-(isopropylamino)-5-methyl-N-(3-(1-((1-methyl-1H-pyrazolo[3,4-b]pyrazin-6-yl)amino)ethyl)phenyl) nicotinamide] | < 300 | < 300 |
| Cc1cncc(C(=O)Nc2cccc([C@H](C)Nc3cnc4cccc(F)c4c3)c2)c1 [Compound 29, (S)-N-(3-(1-((5-fluoroquinolin-3-yl)amino)ethyl)phenyl)-5-methylnicotinamide] | < 300 | < 300 |
| COc1ccc(Cn2ccc3ncc(N[C@@H](C)c4cccc(NC(=O)c5cncc(C)c5)c4)cc32)cc1OC [Compound 81, (S)-N-(3-(1-((1-(3,4-dimethoxybenzyl)-1H-pyrrolo [3,2-b]pyridin-6-yl)amino)ethyl)phenyl)-5-methylnicotinamide] | ≥ 1000 | ≥ 1000 |
| CCn1cc2ncc(N[C@@H](C)c3cccc(NC(=O)c4ccc(CN5CC6(C5)CC6(F)F)c(C)c4)c3)nc2n1 [Compound 461] | 300 to 1000 | < 300 |
| Cc1cncc(C(=O)Nc2cccc([C@H](C)Nc3cnc4[nH]cc(-c5ccncc5)c4n3)c2)c1 [Compound 592, (S)-5-methyl-N-(3-(1-((7-(pyridin-4-yl)-5H-pyrrolo[2,3-b]pyrazin-2-yl)amino)ethyl)phenyl)nicotinamide] | < 300 | < 300 |
| C[C@H](Nc1cnc2cnn(C)c2n1)c1cccc(NC(=O)c2cncc(C3COC3)c2)c1 [Compound 114, (S)-N-(3-(1-((1-methyl-1H-pyrazolo[3,4-b]pyrazin-6-yl)amino)ethyl)phenyl)-5-(oxetan-3-yl)nicotinamide] | < 300 | < 300 |
| Cc1n[nH]c2ncc(N[C@@H](C)c3cccc(NC(=O)c4ccc(C5CC5)nc4)c3)nc12 [Compound 535, (S)-6-cyclopropyl-N-(3-(1-((3-methyl-1H-pyrazolo[3,4-b]pyrazin-5-yl)amino)ethyl)phenyl)nicotinamide] | < 300 | < 300 |
| Cc1cc(C(=O)Nc2cccc([C@H](C)Nc3cnc4cnn(C)c4n3)c2)cnc1OC(C)C [Compound 248, (S)-6-isopropoxy-5-methyl-N-(3-(1-((1-methyl-1H-pyrazolo[3,4-b]pyrazin-6-yl)amino)ethyl)phenyl) nicotinamide] | < 300 | < 300 |
| CCn1cc2ncc(N[C@@H](C)c3cccc(NC(=O)Cc4ccc(OC)c(F)c4)c3)nc2n1 [Compound 626, (S)-N-(3-(1-((2-ethyl-2H-pyrazolo[3,4-b]pyrazin-6-yl)amino)ethyl)phenyl)-2-(3-fluoro-4-methoxyphenyl) acetamide] | ≥ 1000 | < 300 |
| CCn1cc2ncc(N[C@@H](C)c3cccc(NC(=O)c4ccc(N5CCCC5)c(F)c4)c3)nc2n1 [Compound 441, (S)-N-(3-(1-((2-ethyl-2H-pyrazolo[3,4-b]pyrazin-6-yl)amino)ethyl)phenyl)-3-fluoro-4-(pyrrolidin-1-yl)benzamide] | < 300 | < 300 |
